# Key:
# Novikoff hepatoma = Novikoff hepatoma tumor model in rats, IV infusion, tumor volume; format: in vivo, rat; settings: for inhibition of tumor growth if the tumor was relatively small at the beginning of the treatment: Novikoff hepatoma, IV infusion, in some cases apoptosis; for inhibition of the tumor growth (tumor size): subcutaneous Novikoff hepatoma, continuous IV infusion over 10 days, 1.25 mM aminooxyacetate or 10 μM CHBA, beginning with a tumor volume of 1 ml, vs NaCl control
# Description: As a tumor model, immuno-competent adult rats were used, treated with IV infusion. This animal model provides better correlation to human therapy than immuno-incompetent nude mice, which are commonly used. The animal tests were approved according to paragraph 8 section 1 of the German Animal Protection Act, and were performed according to the recommendations of the Tieraerztliche Vereinigung fuer Tierschutz e.V. (Veterinarians' Association for Animal Protection). Male inbreed rats (Sprague-Dawley, 200-250 g, Charles River, Sulzfeld, Germany) were used as tumor recipients.
# Novikoff hepatoma was used as the source of tumor cells. Of several tested, experimentally produced tumors, the Novikoff hepatoma best all requirements of a solid tumor having all signs of malignity and similarity to hepatocellular carcinoma in humans. The Novikoff hepatoma was induced by Alex B. Novikoff in […] by feeding a diet containing 0.06% […] (butter yellow) to female Sprague-Dawley rats (Novikoff B., A transplantable rat liver tumour induced by 4-dimethylaminoazobenzene. Cancer Res. 1951; 17:1010). […] The chromatin structure in the tumor cells appears in an irregular form, and the nuclei are indented, round and oval.
# The Deutsches Krebsforschungsinstitut in Heidelberg provided the Novikoff hepatoma cells. The cells were received in Hank's solution and intraperitoneally injected in a sterile manner into a Sprague-Dawley rat for passaging. Within a week, approximately 50 ml hemorrhagic ascites were generated and removed in a sterile manner. The pellet generated after centrifugation at 1,300 rpm for five minutes in a Falcon tube was prepped for further purification of cells from other ascites components by washing with 50 ml Dulbecco's MEM (Gibco BRL, Eggenstein) and centrifugation at 1,300 rpm for five minutes. The supernatant was decanted, and the pellet was mixed in Dulbecco's+40% fetal calf serum (FCS). 0.7 ml cell suspension and 0.7 freezing medium each were filled in Nunc tubes, airtight sealed, pre-cooled for five minutes at −20° C. and for 12 hours at −80° C., and then deep-frozen in liquid nitrogen. The freezing medium was 40% Dulbecco's, 40% FCS and 20% DMSO.
# The cells were prepared for the application as follows: after thawing, the pellet was reacted in a Falcon tube with 50 ml of a medium (Dulbecco's+40% FCS), pre-heated to 37° C., and centrifuged for five minutes at 1,300 rpm. […]
# After centrifugation and decantation of the supernatant, the pellet was suspended in HBSS, 100 microlitres were sampled with an Eppendorf pipette and counted for determining the number of vital cells after vital staining with erythrosine (BioMed, Munich, Germany) in a Neubauer counting chamber. […]
# The tumor size was determined by CT-supported volumetry. […]
# Novikoff hepatoma cells = assay: Dose-dependence of proliferation inhibition, cell density of cultivated Novikoff hepatoma cells; format: cell-based, rat; settings: four days of cultivation, at higher dosage levels
# Description: For the experiments, Novikoff hepatoma cells were cultivated in a conventional manner. The control substance contained a solvent without an active ingredient. The other groups received different doses of a respective test compound. After four days of cultivation with or without active ingredient, the cell density was determined using standard methods. In FIG. 2 is shown the dose-dependence of obtained cell densities for aminooxyacetate, in FIG. 3 for CHBA, in FIG. 4 for glycerate-2,3-bisphosphate, and in FIG. 5 for fructose-1,6-bisphosphate.
# M2-PK = M2-PK (Homo sapiens, UniProt P14618); settings: known from Eigenbrodt et al. 1992; cited from earlier work
# [1] = target: T1, glutamate pyruvate transaminase (Homo sapiens, UniProt P24298); settings: known from Eigenbrodt et al. 1994; cited from earlier work
# T1 sequence (P24298 2-496 limits assumed): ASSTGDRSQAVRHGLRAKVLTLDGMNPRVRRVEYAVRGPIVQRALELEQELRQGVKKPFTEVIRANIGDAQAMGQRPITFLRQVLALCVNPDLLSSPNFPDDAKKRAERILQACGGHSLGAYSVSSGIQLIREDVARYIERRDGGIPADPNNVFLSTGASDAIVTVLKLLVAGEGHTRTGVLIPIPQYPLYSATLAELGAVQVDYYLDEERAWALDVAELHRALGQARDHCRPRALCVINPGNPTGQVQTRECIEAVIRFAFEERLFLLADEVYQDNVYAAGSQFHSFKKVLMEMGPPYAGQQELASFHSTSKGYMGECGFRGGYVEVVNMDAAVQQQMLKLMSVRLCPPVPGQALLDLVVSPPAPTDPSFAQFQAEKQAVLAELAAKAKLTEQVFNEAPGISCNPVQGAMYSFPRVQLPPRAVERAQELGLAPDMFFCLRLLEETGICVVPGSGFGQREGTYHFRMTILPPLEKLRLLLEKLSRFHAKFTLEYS
# cells = settings: known from Eigenbrodt et al. 1994; cited from earlier work
# M2-PK, sequence (P14618 whole entry, species assumed): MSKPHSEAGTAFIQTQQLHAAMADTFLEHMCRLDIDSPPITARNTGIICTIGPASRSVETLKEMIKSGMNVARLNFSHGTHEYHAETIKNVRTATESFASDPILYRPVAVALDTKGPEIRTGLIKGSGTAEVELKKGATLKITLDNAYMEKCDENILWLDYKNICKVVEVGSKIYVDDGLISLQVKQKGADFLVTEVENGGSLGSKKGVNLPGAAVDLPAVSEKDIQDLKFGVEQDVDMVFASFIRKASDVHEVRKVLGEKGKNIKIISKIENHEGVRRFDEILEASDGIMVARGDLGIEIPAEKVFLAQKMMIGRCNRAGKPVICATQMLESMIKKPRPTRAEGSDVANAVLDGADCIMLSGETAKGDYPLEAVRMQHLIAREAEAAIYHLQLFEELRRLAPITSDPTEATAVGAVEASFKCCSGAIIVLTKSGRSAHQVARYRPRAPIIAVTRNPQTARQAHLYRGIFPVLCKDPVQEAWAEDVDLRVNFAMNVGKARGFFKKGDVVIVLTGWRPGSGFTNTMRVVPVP
compound,measurement,setting,value
"CC(O)=C(C#N)C(=O)Nc1ccc(C(F)(F)F)cc1 [CHBA, 2-cyano-3-hydroxy-but-2-(4-trifluoromethyl-phenyl)-amide]",inhibition of tumor growth if the tumor was relatively small at the beginning of the treatment,Novikoff hepatoma,practically complete inhibition
same,inhibition of the tumor growth (tumor size),Novikoff hepatoma,substantial inhibition
same,inhibition of cell density (proliferation),Novikoff hepatoma cells,practically complete inhibition
C[C@H](N)C(=O)O [alanine],inhibition of M2-PK,M2-PK,inhibit
NOCC(=O)O [aminooxyacetate],inhibition of tumor growth if the tumor was relatively small at the beginning of the treatment,Novikoff hepatoma,practically complete inhibition
same,inhibition of the tumor growth (tumor size),Novikoff hepatoma,substantial inhibition
same,inhibition of glutamate pyruvate transaminase,[1],inhibit
same,inhibition of cell density (proliferation),Novikoff hepatoma cells,practically complete inhibition
same,inhibition of the proliferation of cells,cells,can inhibit
"N[C@@H]1CON=C1O [cycloserine, reference compound]",inhibition of glutamate pyruvate transaminase,[1],inhibit
same,inhibition of the proliferation of cells,cells,can inhibit
"O=C(COP(=O)(O)O)[C@@H](O)[C@H](O)[C@H](O)COP(=O)(O)O [fructose-1,6-bisphosphate]",displacement of the dimeric form to the highly active tetrameric form of M2-PK,M2-PK,leads to a displacement of the dimeric form to the highly active tetrameric form
same,inhibition of cell density (proliferation),Novikoff hepatoma cells,practically complete inhibition
"O=C(O)C(COP(=O)(O)O)OP(=O)(O)O (stereo not drawn) [glycerate-2,3-bisphosphate]",inhibition of cell density (proliferation),Novikoff hepatoma cells,practically complete inhibition
CC(C)C[C@H](N)C(=O)O [leucine],inhibition of M2-PK,M2-PK,inhibit

# From patent US20090163591A1, “USE OF SUGAR PHOSPHATES, SUGAR PHOSPHATE ANALOGS, AMINO ACIDS AND/OR AMINO ACID ANALOGS FOR MODULATING THE GLUCOLYSIS-ENZYME COMPLEX, THE MALATE ASPARATE SHUTTLE AND/OR THE TRANSAMINASES” (priority 2001, published 2009)
